From patent US9376392B2, “2-(tert-butoxy)-2-(7-methylquinolin-6-yl) acetic acid derivatives for treating AIDS” (Gilead Sciences, Inc., priority 2012, dated 2016)

System: HIV-IIIb (MT-4 cells)
Assay: Test A: Antiviral Assays in MT4 Cells
Assay type: cell-based
Settings: MT4, 120 h, MT-4 cells infected with HIV-IIIb, 5 days of incubation, CellTiter-Glo readout
Experimental: The antiviral properties of a compound disclosed herein may be determined using Test A described below.
Test A: Antiviral Assays in MT4 Cells
For the antiviral assay utilizing MT-4 cells, 0.4 μL of […] test concentration of 3-fold serially diluted compound in DMSO was added to 40 μL of cell growth medium (RPMI 1640, 10% FBS, 1% penicillin/Streptomycin, 1% L-Glutamine, 1% HEPES) in each well of 384-well assay plates (10 concentrations) in quadruplicate.
1 mL aliquots of 2×10e6 MT-4 cells are pre-infected for 1 and 3 hrs respectively, @ 37° C. with 25 μL (MT4) or of either cell growth medium (mock-infected) or a fresh 1:250 dilution of an HIV-IIIb concentrated ABI stock (0.004 m.o.i. for MT4 cells). Infected and uninfected cells are diluted in cell growth medium and 35 μL of 2000 (for MT4) cells is added to each well of the assay plates.
Assay plates were then incubated in a 37° C. incubator. After 5 days of incubation, […] 2× concentrated CellTiter-Glo™ Reagent (catalog #G7573, Promega Biosciences, Inc., Madison, Wis.) was added to each well of the assay plate. Cell lysis was carried out by incubating at room temperature for 2-3 min and then chemiluminescence was read using the Envision reader (PerkinElmer).

Row | Compound | EC50
1 | Cc1cc2c(ccc(=O)n2CC2CC2)c(-c2ccc3c4c(ccnc24)CCO3)c1[C@H](OC(C)(C)C)C(=O)O (atropisomer, axis not shown) [Example 1, (S)-2-tert-Butoxy-2-((R)-1-(cyclopropylmethyl)-5-(2,3-dihydropyrano[4,3,2-de]quinolin-7-yl)-7-methyl-2-oxo-1,2-dihydroquinolin-6-yl)acetic acid] | 409 nM
2 | Cc1cc2c(ccc(=O)n2Cc2cccc(S(C)(=O)=O)c2)c(-c2ccc3c4c(ccnc24)CCO3)c1[C@H](OC(C)(C)C)C(=O)O (atropisomer, axis not shown) [Example 2, (S)-2-tert-Butoxy-2-((R)-5-(2,3-dihydropyrano[4,3,2-de]quinolin-7-yl)-7-methyl-1-(3-(methylsulfonyl)benzyl)-2-oxo-1,2-dihydroquinolin-6-yl)acetic acid] | 460 nM
3 | Cc1cc2nc(OCc3cccc(C(F)(F)F)c3)ccc2c(-c2ccc3c4c(ccnc24)CCO3)c1[C@H](OC(C)(C)C)C(=O)O (atropisomer, axis not shown) [Example 3, (S)-2-tert-Butoxy-2-((R)-5-(2,3-dihydropyrano[4,3,2-de]quinolin-7-yl)-7-methyl-2-(3-(trifluoromethyl)benzyloxy)quinolin-6-yl)acetic acid] | 123 nM
4 | Cc1cc2nc(OCc3cccc(S(C)(=O)=O)c3)ccc2c(-c2ccc3c4c(ccnc24)CCO3)c1[C@H](OC(C)(C)C)C(=O)O (atropisomer, axis not shown) [Example 4, (S)-2-tert-Butoxy-2-((R)-5-(2,3-dihydropyrano[4,3,2-de]quinolin-7-yl)-7-methyl-2-(3-(methylsulfonyl)benzyloxy)quinolin-6-yl)acetic acid] | 13.6 nM
5 | Cc1cc2c(ccc(=O)n2Cc2cccc(C(F)(F)F)c2)c(-c2ccc3c4c(ccnc24)CCO3)c1[C@H](OC(C)(C)C)C(=O)O (atropisomer, axis not shown) [Example 5, (S)-2-tert-Butoxy-2-((R)-5-(2,3-dihydropyrano[4,3,2-de]quinolin-7-yl)-7-methyl-2-oxo-1-(3-(trifluoromethyl)benzyl)-1,2-dihydroquinolin-6-yl)acetic acid] | 30.7 nM
6 | Cc1cc2nc(OCc3ccc(C(N)=O)cc3)ccc2c(-c2ccc3c4c(ccnc24)CCO3)c1[C@H](OC(C)(C)C)C(=O)O (atropisomer, axis not shown) [Example 8, (S)-2-tert-Butoxy-2-((R)-2-(4-carbamoylbenzyloxy)-5-(2,3-dihydropyrano[4,3,2-de]quinolin-7-yl)-7-methylquinolin-6-yl)acetic acid] | 36.8 nM
7 | Cc1cc2nc(OCc3ccc(S(C)(=O)=O)cc3)ccc2c(-c2ccc3c4c(ccnc24)CCO3)c1[C@H](OC(C)(C)C)C(=O)O (atropisomer, axis not shown) [Example 9, (S)-2-tert-Butoxy-2-((R)-5-(2,3-dihydropyrano[4,3,2-de]quinolin-7-yl)-7-methyl-2-(4-(methylsulfonyl)benzyloxy)quinolin-6-yl)acetic acid] | 21.2 nM
8 | Cc1cc2nc(OCc3ccccc3S(C)(=O)=O)ccc2c(-c2ccc3c4c(ccnc24)CCO3)c1[C@H](OC(C)(C)C)C(=O)O (atropisomer, axis not shown) [Example 10, (S)-2-tert-Butoxy-2-((R)-5-(2,3-dihydropyrano[4,3,2-de]quinolin-7-yl)-7-methyl-2-(2-(methylsulfonyl)benzyloxy)quinolin-6-yl)acetic acid] | 8.63 nM
9 | Cc1cc2c(ccc(=O)n2Cc2ccc(C(F)(F)F)cc2)c(-c2ccc3c4c(ccnc24)CCO3)c1[C@H](OC(C)(C)C)C(=O)O (atropisomer, axis not shown) [Example 11, (S)-2-tert-Butoxy-2-((R)-5-(2,3-dihydropyrano[4,3,2-de]quinolin-7-yl)-7-methyl-2-oxo-1-(4-(trifluoromethyl)benzyl)-1,2-dihydroquinolin-6-yl)acetic acid] | 983 nM
10 | Cc1cc2nc(OCc3ccccc3)ccc2c(-c2ccc3c4c(ccnc24)CCO3)c1[C@H](OC(C)(C)C)C(=O)O (atropisomer, axis not shown) [Example 12, (S)-2-((R)-2-(Benzyloxy)-5-(2,3-dihydropyrano[4,3,2-de]quinolin-7-yl)-7-methylquinolin-6-yl)-2-tert-butoxyacetic acid] | 50 nM
11 | Cc1cc2nc(OCc3ccc(OC(F)(F)F)cc3)ccc2c(-c2ccc3c4c(ccnc24)CCO3)c1[C@H](OC(C)(C)C)C(=O)O (atropisomer, axis not shown) [Example 13, (S)-2-tert-Butoxy-2-((R)-5-(2,3-dihydropyrano[4,3,2-de]quinolin-7-yl)-7-methyl-2-(4-(trifluoromethoxy)benzyloxy)quinolin-6-yl)acetic acid] | 285 nM
12 | Cc1cc2nc(OCc3cccc(OC(F)(F)F)c3)ccc2c(-c2ccc3c4c(ccnc24)CCO3)c1[C@H](OC(C)(C)C)C(=O)O (atropisomer, axis not shown) [Example 14, (S)-2-tert-Butoxy-2-((R)-5-(2,3-dihydropyrano[4,3,2-de]quinolin-7-yl)-7-methyl-2-(3-(trifluoromethoxy)benzyloxy)quinolin-6-yl)acetic acid] | 217 nM
13 | Cc1cc2c(ccc(=O)n2Cc2ccccc2OC(F)(F)F)c(-c2ccc3c4c(ccnc24)CCO3)c1[C@H](OC(C)(C)C)C(=O)O (atropisomer, axis not shown) [Example 15, (S)-2-tert-Butoxy-2-((R)-5-(2,3-dihydropyrano[4,3,2-de]quinolin-7-yl)-7-methyl-2-oxo-1-(2-(trifluoromethoxy)benzyl)-1,2-dihydroquinolin-6-yl)acetic acid] | 359 nM
14 | Cc1cc2c(ccc(=O)n2Cc2ccc(OC(F)(F)F)cc2)c(-c2ccc3c4c(ccnc24)CCO3)c1[C@H](OC(C)(C)C)C(=O)O (atropisomer, axis not shown) [Example 16, (S)-2-tert-Butoxy-2-((R)-5-(2,3-dihydropyrano[4,3,2-de]quinolin-7-yl)-7-methyl-2-oxo-1-(4-(trifluoromethoxy)benzyl)-1,2-dihydroquinolin-6-yl)acetic acid] | 1610 nM
15 | Cc1cc2nc(OCc3ccc(S(N)(=O)=O)cc3)ccc2c(-c2ccc3c4c(ccnc24)CCO3)c1[C@H](OC(C)(C)C)C(=O)O (atropisomer, axis not shown) [Example 17, (S)-2-tert-Butoxy-2-((R)-5-(2,3-dihydropyrano[4,3,2-de]quinolin-7-yl)-7-methyl-2-(4-sulfamoylbenzyloxy)quinolin-6-yl)acetic acid] | 84 nM
16 | Cc1cc2c(ccc(=O)n2Cc2cccc(OC(F)(F)F)c2)c(-c2ccc3c4c(ccnc24)CCO3)c1[C@H](OC(C)(C)C)C(=O)O (atropisomer, axis not shown) [Example 18, (S)-2-tert-Butoxy-2-((R)-5-(2,3-dihydropyrano[4,3,2-de]quinolin-7-yl)-7-methyl-2-oxo-1-(3-(trifluoromethoxy)benzyl)-1,2-dihydroquinolin-6-yl)acetic acid] | 185 nM
17 | Cc1cc2nc(OCc3ccccc3OC(F)(F)F)ccc2c(-c2ccc3c4c(ccnc24)CCO3)c1[C@H](OC(C)(C)C)C(=O)O (atropisomer, axis not shown) [Example 19, (S)-2-tert-Butoxy-2-((R)-5-(2,3-dihydropyrano[4,3,2-de]quinolin-7-yl)-7-methyl-2-(2-(trifluoromethoxy)benzyloxy)quinolin-6-yl)acetic acid] | 70 nM
18 | Cc1cc2c(ccc(=O)n2Cc2cc(C(F)(F)F)cc(C(F)(F)F)c2)c(-c2ccc3c4c(ccnc24)CCO3)c1[C@H](OC(C)(C)C)C(=O)O (atropisomer, axis not shown) [Example 20, (S)-2-((R)-1-(3,5-Bis(trifluoromethyl)benzyl)-5-(2,3-dihydropyrano[4,3,2-de]quinolin-7-yl)-7-methyl-2-oxo-1,2-dihydroquinolin-6-yl)-2-tert-butoxyacetic acid] | 90 nM
19 | Cc1cc2c(ccc(=O)n2Cc2ccncc2)c(-c2ccc3c4c(ccnc24)CCO3)c1[C@H](OC(C)(C)C)C(=O)O (atropisomer, axis not shown) [Example 21, (S)-2-tert-Butoxy-2-((R)-5-(2,3-dihydropyrano[4,3,2-de]quinolin-7-yl)-7-methyl-2-oxo-1-(pyridin-4-ylmethyl)-1,2-dihydroquinolin-6-yl)acetic acid] | 755 nM
20 | Cc1cc2c(ccc(=O)n2Cc2cccnc2)c(-c2ccc3c4c(ccnc24)CCO3)c1[C@H](OC(C)(C)C)C(=O)O (atropisomer, axis not shown) [Example 22, (S)-2-tert-Butoxy-2-((R)-5-(2,3-dihydropyrano[4,3,2-de]quinolin-7-yl)-7-methyl-2-oxo-1-(pyridin-3-ylmethyl)-1,2-dihydroquinolin-6-yl)acetic acid] | 318 nM
21 | Cc1cc2c(ccc(=O)n2Cc2cnccn2)c(-c2ccc3c4c(ccnc24)CCO3)c1[C@H](OC(C)(C)C)C(=O)O (atropisomer, axis not shown) [Example 23, (S)-2-tert-Butoxy-2-((R)-5-(2,3-dihydropyrano[4,3,2-de]quinolin-7-yl)-7-methyl-2-oxo-1-(pyrazin-2-ylmethyl)-1,2-dihydroquinolin-6-yl)acetic acid] | 383 nM
